Among the data in PubChem BioAssay (NCI) are TGI values, retold here.

Among the test systems are HCT-15 colon; SK-MEL-2 melanoma; HCT-116 colon; MOLT-4 leukemia; SW-620 colon; U251 CNS; NCI-H522 lung; OVCAR-3 ovarian; KM12 colon; IGROV1 ovarian; BT-549 breast.
Test in all cases: growth of human tumour cells (NCI), 48 h

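Cells were grown in 96-well plates and exposed to each compound for 48 hours at five concentrations; endpoints were interpolated linearly between bracketing concentrations, or set to the highest concentration if not reached. TGI: concentration producing complete growth inhibition.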

Turning to `N#CC12C3C4CC5C6C4C1C6C(O)(C53)N2Cc1ccccc1` (stereo not given), the TGI in the test on HCT-15 colon, with SK-MEL-2 melanoma, in the test on HCT-116 colon, in the test on MOLT-4 leukemia, in the test on SW-620 colon and with U251 CNS was over 100 µM each time. The TGI with NCI-H522 lung, in the test with OVCAR-3 ovarian, in the test on KM12 colon and in the test on IGROV1 ovarian was over 100 µM in each case.

Take `CCN(CC)Cc1cc(Nc2c3ccccc3nc3c2[nH]c2ccccc23)ccc1O`: the TGI was 3.25 µM in the test with HCT-15 colon; 2.75 µM in the test on SK-MEL-2 melanoma; 1.91 µM in the test on HCT-116 colon; over 100 µM in the test with MOLT-4 leukemia; 3.43 µM in the test on SW-620 colon; 2.79 µM in the test on U251 CNS. Moreover, the TGI in the test with NCI-H522 lung came to 2.33 µM; in the test on KM12 colon it was 4.66 µM; in the test on IGROV1 ovarian, 4.49 µM.

Take `O=c1cc2ccccc2nn1-c1ccccc1Cl`: the TGI in the test with HCT-15 colon, in the test with SK-MEL-2 melanoma, in the test with HCT-116 colon, in the test with SW-620 colon, with U251 CNS and in the test on OVCAR-3 ovarian was over 100 µM throughout. The TGI with KM12 colon and in the test on IGROV1 ovarian was over 100 µM throughout.

As for `CCOC(=O)CCC(NC(=O)c1ccc(Nc2nc3cc(C(F)(F)F)ccc3nc2-c2ccccc2)cc1)C(=O)OCC` (stereo not given), the TGI in the test on HCT-15 colon, in the test with SK-MEL-2 melanoma, with HCT-116 colon, in the test with MOLT-4 leukemia, in the test on SW-620 colon and with BT-549 breast was over 100 µM in each case. Moreover, the TGI in the test on U251 CNS, in the test on OVCAR-3 ovarian, in the test with KM12 colon and in the test on IGROV1 ovarian was over 100 µM throughout.

On to `CC1=NN(C(=O)Cc2ccccc2)C(=O)/C1=C\C=C\c1ccccc1`, for which the TGI with HCT-15 colon, in the test with SK-MEL-2 melanoma, in the test on HCT-116 colon, in the test on MOLT-4 leukemia, in the test with SW-620 colon and in the test on NCI-H522 lung was over 100 µM throughout. The TGI in the test on OVCAR-3 ovarian and with KM12 colon was over 100 µM each time.

Take `CCOC(=O)c1c(NC(=O)Nc2ccccc2)c(C(N)=O)c2n1CCCCC2`: the TGI with HCT-15 colon, in the test on SK-MEL-2 melanoma, in the test on HCT-116 colon, in the test on MOLT-4 leukemia, with SW-620 colon and in the test on BT-549 breast was over 100 µM throughout. The TGI in the test with U251 CNS, in the test on KM12 colon and in the test with IGROV1 ovarian was over 100 µM each time.

Regarding `COC(=O)CC1C(=O)OCc2c1cc1n(c2=O)Cc2c-1nc1ccccc1c2OC` (stereo not given), the TGI in the test on HCT-15 colon was over 100 µM; in the test with SK-MEL-2 melanoma it was over 100 µM; with HCT-116 colon, over 100 µM; with MOLT-4 leukemia, 32.3 µM; in the test with SW-620 colon it was over 100 µM; in the test with U251 CNS, over 100 µM. Moreover, the TGI in the test with NCI-H522 lung and in the test on IGROV1 ovarian was over 100 µM each time.

Regarding `Cc1cc2oc(=O)[nH]c(=S)c2c(C)c1C`, the TGI with HCT-15 colon, in the test on SK-MEL-2 melanoma, in the test on HCT-116 colon, with MOLT-4 leukemia, with SW-620 colon and in the test on U251 CNS was over 100 µM in each case. Further, the TGI in the test on NCI-H522 lung, with OVCAR-3 ovarian, in the test on KM12 colon and in the test on IGROV1 ovarian was over 100 µM throughout.

With `COC(=O)N/N=C/c1oc(-c2cccc([N+](=O)[O-])c2)c(-c2cccc([N+](=O)[O-])c2)c1[N+](=O)[O-]`, the TGI with HCT-15 colon is over 100 µM; in the test on HCT-116 colon, over 100 µM; in the test with MOLT-4 leukemia, 89.9 µM; with SW-620 colon, over 100 µM; with U251 CNS it was over 100 µM; in the test with NCI-H522 lung, over 100 µM. Further, the TGI with OVCAR-3 ovarian, with KM12 colon and in the test on IGROV1 ovarian was over 100 µM each time.

In the case of `COC[n+]1cc2cc(OC)c(OC)cc2c2ccc3cc(OC)c(OC)cc3c21`, the TGI in the test on HCT-15 colon, with SK-MEL-2 melanoma, with HCT-116 colon, in the test on MOLT-4 leukemia, in the test on SW-620 colon and in the test with U251 CNS was over 100 µM each time. In addition, the TGI in the test with NCI-H522 lung, in the test with OVCAR-3 ovarian, in the test on KM12 colon and in the test on IGROV1 ovarian was over 100 µM throughout.

`COC(=O)c1c(C(=O)OC)c2cc(C(=O)c3ccccc3)ccn2c1Cl`: the TGI is over 100 µM in the test on HCT-15 colon; over 100 µM in the test on SK-MEL-2 melanoma; over 100 µM in the test with HCT-116 colon; 51.5 µM in the test on MOLT-4 leukemia; over 100 µM in the test with SW-620 colon; over 100 µM with U251 CNS. Also, the TGI in the test with NCI-H522 lung was 50.8 µM; with OVCAR-3 ovarian it was 63.1 µM; in the test on KM12 colon, 72.8 µM; with IGROV1 ovarian it was over 100 µM.

In the case of `COC12C=CC(CC1)C1C(=O)c3c(C)c(C)n(C)c3C(=O)C12` (stereo not given), the TGI in the test on HCT-15 colon, in the test with SK-MEL-2 melanoma, in the test on HCT-116 colon, in the test with MOLT-4 leukemia, with SW-620 colon and in the test on BT-549 breast was over 100 µM each time. Moreover, the TGI in the test with U251 CNS, with OVCAR-3 ovarian, with KM12 colon and with IGROV1 ovarian was over 100 µM each time.

Take `S=C(Nc1cccc(Cl)c1)Nc1ccccn1`: the TGI in the test with HCT-15 colon, in the test on SK-MEL-2 melanoma, in the test with HCT-116 colon, in the test on MOLT-4 leukemia, with SW-620 colon and with BT-549 breast was over 100 µM throughout. Besides, the TGI with U251 CNS, in the test with OVCAR-3 ovarian, with KM12 colon and in the test with IGROV1 ovarian was over 100 µM each time.

In the case of `CCOC(=O)c1nc2ccc(C(F)(F)F)cc2nc1Oc1ccc(F)cc1`, the TGI with HCT-15 colon, in the test with SK-MEL-2 melanoma, in the test with HCT-116 colon, in the test on MOLT-4 leukemia, with SW-620 colon and in the test on BT-549 breast was over 100 µM each time. The TGI in the test on U251 CNS, with KM12 colon and with IGROV1 ovarian was over 100 µM in each case.
